Measurements from US7863276B2, “Salts of modulators of PPAR and methods of treating metabolic disorders” (KALYPSYS, Inc, priority 2005, dated 2011).
pEC50: −log10 of the molar value.

What was measured:
Assay type in all cases: cell-based, murine and human
PPARγ = biological target: T1, PPARγ (UniProt P37231); test: PPARγ GAL4 chimera transactivation assay in CV-1 cells; conditions: transient transfection, luciferase reporter, 20-24 hours, read-out: PPAR gamma
T1 sequence (P37231 1-505): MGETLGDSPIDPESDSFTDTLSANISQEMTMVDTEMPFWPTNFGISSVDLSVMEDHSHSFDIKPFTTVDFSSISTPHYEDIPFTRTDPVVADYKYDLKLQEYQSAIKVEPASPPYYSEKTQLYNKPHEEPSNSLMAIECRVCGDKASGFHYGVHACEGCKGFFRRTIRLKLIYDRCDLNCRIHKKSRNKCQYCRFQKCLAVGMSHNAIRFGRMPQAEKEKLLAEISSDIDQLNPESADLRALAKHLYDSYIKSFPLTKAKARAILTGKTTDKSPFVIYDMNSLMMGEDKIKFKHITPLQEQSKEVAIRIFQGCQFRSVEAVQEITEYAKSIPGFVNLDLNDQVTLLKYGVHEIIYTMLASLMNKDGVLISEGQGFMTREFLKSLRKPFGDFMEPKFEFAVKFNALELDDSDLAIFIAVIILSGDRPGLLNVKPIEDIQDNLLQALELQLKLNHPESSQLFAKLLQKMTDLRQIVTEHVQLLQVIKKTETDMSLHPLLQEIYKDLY
Excerpt: (§1) Compounds were screened for functional potency in transient transfection assays in CV-1 cells for their ability to activate the PPAR subtypes (transactivation assay). A previously established chimeric receptor system was utilized to allow comparison of the relative transcriptional activity of the receptor subtypes on the same synthetic response element and to prevent endogenous receptor activation from complicating the interpretation of results. See, for example, Lehmann, J. M.; Moore, L. B.; Smith-Oliver, T. A; Wilkinson, W. O.; Willson, T. M.; Kliewer, S. A., An antidiabetic thiazolidinedione is a high affinity ligand for peroxisome proliferator-activated receptor […], J. Biol. Chem., 1995, 270, 12953-6. The ligand binding domains for murine and human PPARα, PPARγ, and PPARδ are each fused to the yeast transcription factor GAL4 DNA binding domain. CV-1 cells were transiently transfected with expression vectors for the respective PPAR chimera along with a reporter construct containing four or five copies of the GAL4 DNA binding site driving expression of luciferase. […] Luciferase activity was then assayed with Britelite (Perkin Elmer) following the manufacturer's protocol and measured with either the Perkin Elmer Viewlux or Molecular Devices Acquest (see, for example, Kliewer, S. A., et. al. Cell 1995, 83, 813-819). […]

PPARδ = biological target: T2, PPARδ (UniProt Q03181); test: PPARδ GAL4 chimera transactivation assay in CV-1 cells; conditions: transient transfection, luciferase reporter, 20-24 hours, read-out: PPAR delta
T2 sequence (Q03181 1-441): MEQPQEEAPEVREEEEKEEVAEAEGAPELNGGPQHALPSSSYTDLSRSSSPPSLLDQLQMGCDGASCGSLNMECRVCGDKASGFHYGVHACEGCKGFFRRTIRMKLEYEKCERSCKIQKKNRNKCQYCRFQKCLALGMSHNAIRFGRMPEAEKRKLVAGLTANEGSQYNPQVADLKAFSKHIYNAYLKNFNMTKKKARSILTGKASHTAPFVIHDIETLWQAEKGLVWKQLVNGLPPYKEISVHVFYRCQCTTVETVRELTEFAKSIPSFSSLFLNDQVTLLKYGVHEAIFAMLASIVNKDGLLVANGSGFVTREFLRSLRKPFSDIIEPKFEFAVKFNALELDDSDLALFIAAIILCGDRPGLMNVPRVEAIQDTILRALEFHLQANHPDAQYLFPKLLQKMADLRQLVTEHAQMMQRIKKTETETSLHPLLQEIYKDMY
Excerpt: as §1

PPARα = biological target: T3, PPARα (UniProt Q07869); test: PPARα GAL4 chimera transactivation assay in CV-1 cells; conditions: transient transfection, luciferase reporter, 20-24 hours, read-out: PPAR alpha
T3 sequence (Q07869 1-468): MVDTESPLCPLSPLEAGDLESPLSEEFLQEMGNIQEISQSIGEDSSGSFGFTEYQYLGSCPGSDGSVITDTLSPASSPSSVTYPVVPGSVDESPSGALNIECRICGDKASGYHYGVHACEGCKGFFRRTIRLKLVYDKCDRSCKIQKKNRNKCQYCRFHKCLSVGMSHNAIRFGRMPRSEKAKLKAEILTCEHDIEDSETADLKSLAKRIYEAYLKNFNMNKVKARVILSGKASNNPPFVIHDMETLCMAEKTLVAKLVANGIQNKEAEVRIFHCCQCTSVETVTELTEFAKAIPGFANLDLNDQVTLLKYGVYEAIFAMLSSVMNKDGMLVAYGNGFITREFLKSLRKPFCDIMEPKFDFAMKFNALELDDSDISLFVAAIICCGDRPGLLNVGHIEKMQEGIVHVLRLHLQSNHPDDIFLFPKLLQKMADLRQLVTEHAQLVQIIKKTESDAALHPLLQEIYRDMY
Excerpt: as §1

Row | pEC50 (PPARγ) | pEC50 (PPARδ) | pEC50 (PPARα) | SMILES
1 | 4.00 to 5.30 | > 5.30 | < 4.00 | C[C@@H]1CN(Cc2ccc(OC(F)(F)F)cc2)C[C@H](C)N1S(=O)(=O)c1cccc2c1C[C@@H](C(=O)O)C2 [Compound 2, (S)-4-[cis-2,6-Dimethyl-4-(4-trifluoromethoxy-benzyl)-piperazine-1-sulfonyl]-indan-2-carboxylic acid]
2 | < 4.00 | > 5.30 | < 4.00 | C[C@@H]1CN(c2ccc(OC(F)(F)F)cc2)C[C@H](C)N1S(=O)(=O)c1cccc2c1C[C@@H](C(=O)O)C2 [Compound 1, (S)-4-[cis-2,6-Dimethyl-4-(4-trifluoromethoxy-phenyl)-piperazine-1-sulfonyl]-indan-2-carboxylic acid]
